Measured values reported in patent US9067932B2, “Pyrazolopyridine kinase inhibitors” (Vertex Pharmaceuticals Incorporated, priority 2010, dated 2015).

Legend:
Format in all cases: biochemical
[1] = target: PKC theta kinase (Homo sapiens, UniProt Q04759); assay: PKC theta coupled-enzyme (NADH consumption) kinase assay; settings: 18 nM PKC theta, 240 μM ATP, 30° C., initial rate at 340 nm; read-out: Ki PKC theta
Protocol: (§1) An assay buffer solution was prepared which consisted of 100 mM HEPES (pH 7.5), 10 mM MgCl2, 25 mM NaCl, 0.1 mM EDTA and 0.01% Brij. […] To 60 μL of this enzyme buffer, in a 384 well plate, was added 2 μL of VRT stock solution in DMSO. […] The enzyme reaction was initiated by the addition of 5 μL stock ATP solution prepared in assay buffer to a final assay concentration of 240 μM. Initial rate data was determined from the rate of change of absorbance at 340 nm (corresponding to stoichiometric consumption of NADH) using a Molecular Devices Spectramax plate reader (Sunnyvale, Calif.) over 15 mins at 30° C. For each Ki determination 12 data points covering the VRT concentration range of 0-20 μM were obtained in duplicate (DMSO stocks were prepared from an initial 10 mM VRT stock with subsequent 1:2 serial dilutions). Ki values were calculated from initial rate data by non-linear regression using the Prism software package (Prism 4.0a, Graphpad Software, San Diego, Calif.).

[2] = target: PKC delta kinase (Homo sapiens, UniProt Q05655); assay: PKC delta coupled-enzyme (NADH consumption) kinase assay; settings: 46 nM PKC delta, 150 μM ATP, 30° C., initial rate at 340 nm
Protocol: as §1, with “To 16” for “To 60”, “added 1” for “added 2”, “of 16” for “of 5”, “of 150” for “of 240”

[3] = target: PKC alpha kinase (Homo sapiens, UniProt P17252); assay: PKC alpha coupled-enzyme (NADH consumption) kinase assay; settings: 4.5 nM PKC alpha, 130 μM ATP, 100 μM CaCl2, 30° C.; read-out: Ki PKC alpha
Protocol: An assay buffer solution was prepared which consisted of 100 mM HEPES (pH 7.5), 10 mM MgCl2, 25 mM NaCl, 0.1 mM EDTA, 100 μM CaCl2 and 0.01% Brij. An enzyme buffer containing reagents to final assay concentrations of 0.002% Triton X-100, 100 μg/mL Phosphatidylserine, 20 μg/mL Diacylglycerol, 360 μM NADH, 3 mM phosphoenolpyruvate, 70 μg/mL pyruvate kinase, 24 μg/mL lactate dehydrogenase, 2 mM DTT, 150 μM substrate peptide ([…] SEQ ID NO. 1) and 4.5 nM PKC alpha kinase was prepared in assay buffer. To 16 μL of this enzyme buffer, in a 384 well plate, was added 1 μL of VRT stock solution in DMSO. The mixture was allowed to equilibrate for 10 mins at 30° C. The enzyme reaction was initiated by the addition of 16 μL stock ATP solution prepared in assay buffer to a final assay concentration of 130 μM. Initial rate data was determined from the rate of change of absorbance at 340 nm (corresponding to stoichiometric consumption of NADH) using a Molecular Devices Spectramax plate reader (Sunnyvale, Calif.) over 15 mins at 30° C. For each Ki determination 12 data points covering the VRT concentration range of 0-20 μM were obtained in duplicate (DMSO stocks were prepared from an initial 10 mM VRT stock with subsequent 1:2 serial dilutions). Ki values were calculated from initial rate data by non-linear regression using the Prism software package (Prism 4.0a, Graphpad Software, San Diego, Calif.).

PKC delta kinase, sequence (Q05655 whole entry): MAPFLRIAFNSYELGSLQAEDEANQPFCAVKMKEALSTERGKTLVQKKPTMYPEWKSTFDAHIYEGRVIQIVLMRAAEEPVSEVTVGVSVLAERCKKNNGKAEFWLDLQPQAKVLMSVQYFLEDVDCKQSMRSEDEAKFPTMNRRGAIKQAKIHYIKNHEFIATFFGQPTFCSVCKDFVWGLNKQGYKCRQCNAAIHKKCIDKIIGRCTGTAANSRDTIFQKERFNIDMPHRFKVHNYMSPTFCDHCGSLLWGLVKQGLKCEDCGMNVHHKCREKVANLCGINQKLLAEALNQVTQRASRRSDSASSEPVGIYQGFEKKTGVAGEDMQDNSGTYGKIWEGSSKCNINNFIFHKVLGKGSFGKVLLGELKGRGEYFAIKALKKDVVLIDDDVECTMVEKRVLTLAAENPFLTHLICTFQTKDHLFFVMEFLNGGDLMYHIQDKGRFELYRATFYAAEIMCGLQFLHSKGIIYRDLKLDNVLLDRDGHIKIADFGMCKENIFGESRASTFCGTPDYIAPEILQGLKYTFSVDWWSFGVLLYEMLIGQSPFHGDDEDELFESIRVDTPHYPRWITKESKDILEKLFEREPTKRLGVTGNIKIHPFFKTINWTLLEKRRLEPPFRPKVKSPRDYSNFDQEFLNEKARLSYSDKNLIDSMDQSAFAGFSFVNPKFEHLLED
PKC theta kinase, sequence (Q04759 whole entry): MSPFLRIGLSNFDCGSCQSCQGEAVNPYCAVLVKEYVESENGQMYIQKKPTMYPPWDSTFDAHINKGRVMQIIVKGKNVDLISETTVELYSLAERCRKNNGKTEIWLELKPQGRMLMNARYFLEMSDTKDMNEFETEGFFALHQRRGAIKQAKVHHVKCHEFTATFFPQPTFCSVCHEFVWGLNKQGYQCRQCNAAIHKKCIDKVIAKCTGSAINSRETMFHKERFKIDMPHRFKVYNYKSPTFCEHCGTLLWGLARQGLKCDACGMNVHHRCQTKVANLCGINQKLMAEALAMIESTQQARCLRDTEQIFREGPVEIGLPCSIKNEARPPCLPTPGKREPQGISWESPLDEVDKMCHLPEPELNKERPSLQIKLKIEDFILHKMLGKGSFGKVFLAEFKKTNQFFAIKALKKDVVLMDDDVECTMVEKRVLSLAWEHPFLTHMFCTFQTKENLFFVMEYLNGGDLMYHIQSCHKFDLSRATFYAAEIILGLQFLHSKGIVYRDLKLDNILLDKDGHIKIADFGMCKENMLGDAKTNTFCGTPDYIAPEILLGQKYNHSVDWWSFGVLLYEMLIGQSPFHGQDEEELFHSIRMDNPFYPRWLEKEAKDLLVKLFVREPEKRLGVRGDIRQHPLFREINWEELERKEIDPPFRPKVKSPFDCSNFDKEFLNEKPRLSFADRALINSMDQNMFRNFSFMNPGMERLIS

| SMILES | Ki [1] [µM] | Ki [2] [µM] | Ki [3] [µM] |
| --- | --- | --- | --- |
| CC(O)(C1CN(c2nc(-c3n[nH]c4ncccc34)c(F)cc2F)CCN1)C(F)(F)F (stereo not shown) [Compound 13] | < 0.001 | < 0.5 | < 2.8 |
| CC(CO)[C@@](C)(O)[C@@H]1CN(c2nc(-c3n[nH]c4ncccc34)c(F)cc2F)CCN1 (stereo partly shown) [Compound 39] | < 0.05 | < 0.5 | > 1.25 |
| CC(O)(C1CC1)C1CN(c2nc(-c3n[nH]c4ncccc34)c(F)cc2Cl)CCN1 (stereo not shown) [Compound 30] | < 0.001 | < 0.01 | < 0.5 |
| CCC(C)(O)C1CN(c2nc(-c3n[nH]c4ncccc34)c(F)cc2F)CCN1 (stereo not shown) [Compound 6] | < 0.001 | < 0.05 | < 2.8 |
| CC(C)[C@@H](O)[C@@H]1CN(c2nc(-c3n[nH]c4ncccc34)c(F)cc2F)CCN1 [Compound 7] | < 0.001 | < 0.05 | < 0.5 |
| CC(C)C(N)[C@H]1CCN(c2nc(-c3n[nH]c4ncccc34)c(F)cc2C#N)C1 (stereo partly shown) [Compound 37] | < 0.05 | < 0.5 | < 2.8 |
| CC(O)(C1CC1)C1CN(c2nc(-c3n[nH]c4ncccc34)c(F)cc2F)CCN1 (stereo not shown) [Compound 4] | < 0.001 | < 0.5 | > 1.25 |
| OC(C1CC1)C1CN(c2nc(-c3n[nH]c4ncccc34)c(F)cc2Cl)CCN1 (stereo not shown) [Compound 31] | < 0.001 | < 0.05 | < 2.8 |
| CCC(O)C1CN(c2nc(-c3n[nH]c4ncccc34)c(F)cc2Cl)CCN1 (stereo not shown) [Compound 18] | < 0.05 | < 0.5 | > 1.25 |
| CC[C@@H](O)[C@@H]1CN(c2nc(-c3n[nH]c4ncccc34)c(F)cc2F)CCN1 [Compound 8] | < 0.001 | < 0.05 | < 2.8 |
| CC(C)(C)C(O)C1CN(c2nc(-c3n[nH]c4ncccc34)c(F)cc2Cl)CCN1 (stereo not shown) [Compound 26] | < 0.001 | < 0.01 | < 0.5 |
| CC(CO)[C@@](C)(O)[C@@H]1CN(c2nc(-c3n[nH]c4ncccc34)c(F)cc2Cl)CCN1 (stereo partly shown) [Compound 45] | < 0.5 | > 1.25 | > 1.25 |
| CC(C)C(N)[C@H]1CCN(c2nc(-c3n[nH]c4ncccc34)c(F)cc2Cl)C1 (stereo partly shown) [Compound 23] | < 0.001 | < 0.05 | < 0.5 |
| CC(C)C(N)[C@H]1CCN(c2nc(-c3n[nH]c4ncccc34)c(F)cc2Cl)C1 (stereo partly shown) [Compound 24] | < 0.05 | < 0.5 | > 1.25 |
| COCC(C)(O)C1CN(c2nc(-c3n[nH]c4ncccc34)c(F)cc2Cl)CCN1 (stereo not shown) [Compound 33] | < 0.05 | < 0.5 | > 1.25 |
| COCC(C)(O)C1CN(c2nc(-c3n[nH]c4ncccc34)c(F)cc2F)CCN1 (stereo not shown) [Compound 17] | – | – | < 2.8 |
| CC(O)(CC(F)(F)F)C1CN(c2nc(-c3n[nH]c4ncccc34)c(F)cc2F)CCN1 (stereo not shown) [Compound 15] | < 0.001 | < 0.05 | < 0.5 |
| CC(C)C(N)[C@H]1CCN(c2nc(-c3n[nH]c4ncccc34)c(F)cc2F)C1 (stereo partly shown) [Compound 28] | < 0.001 | < 0.05 | < 0.5 |
| CC(O)(C1CC1)C1CN(c2nc(-c3n[nH]c4ncccc34)c(F)cc2F)CCN1 (stereo not shown) [Compound 5] | – | < 0.05 | < 0.5 |
| CC(C)[C@@](C)(O)C1CN(c2nc(-c3n[nH]c4ncccc34)c(C#N)cc2F)CCN1 (stereo partly shown) [Compound 35] | < 0.5 | – | – |
